Measured values taken from patent US20090131409A1, “1,4,5,6,7,8-HEXAHYDRO -PYRROLO[2,3-d]AZEPINES AND -IMIDAZO[4,5-d]AZEPINES AS MODULATORS OF NUCLEAR RECEPTOR ACTIVITY” (Wyeth, priority 2007, published 2009).

target: T1, Gal4/hFXR fusion protein (Homo sapiens, UniProt Q96RI1); test: Gal4/hFXR fusion protein agonist activity in human 293 cells (luciferase reporter)
T1 sequence (Q96RI1 262-486 limits assumed): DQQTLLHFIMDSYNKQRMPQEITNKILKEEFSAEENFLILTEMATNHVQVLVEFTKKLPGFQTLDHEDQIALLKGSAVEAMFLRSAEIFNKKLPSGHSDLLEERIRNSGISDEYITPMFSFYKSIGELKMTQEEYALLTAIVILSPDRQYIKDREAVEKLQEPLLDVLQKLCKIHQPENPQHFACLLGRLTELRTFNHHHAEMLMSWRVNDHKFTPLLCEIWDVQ

| EC50 [nM] | Compound |
| --- | --- |
| 1300 | CC(C)OC(=O)C1CN(C(=O)c2cccc(F)c2)CC(C)(C)c2cc(C#N)[nH]c21 (stereo not drawn) [isopropyl 2-cyano-6-(3-fluorobenzoyl)-4,4-dimethyl-1,4,5,6,7,8-hexahydropyrrolo[2,3-d]azepine-8-carboxylate] |
| 1300 | CC(C)OC(=O)C1CN(C(=O)c2cccc(Cl)c2)CC(C)(C)c2cc(C#N)[nH]c21 (stereo not drawn) [iso-propyl 6-(3-chlorobenzoyl)-2-cyano-4,4-dimethyl-1,4,5,6,7,8-hexahydropyrrolo[2,3-d]azepine-8-carboxylate] |
| 4100 | CC(C)OC(=O)C1CN(C(=O)c2ccc(Cl)cc2)CC(C)(C)c2cc(C#N)[nH]c21 (stereo not drawn) [iso-propyl 6-(4-chlorobenzoyl)-2-cyano-4,4-dimethyl-1,4,5,6,7,8-hexahydropyrrolo[2,3-d]azepine-8-carboxylate] |
| 280 | CC(C)OC(=O)C1CN(C(=O)c2ccc(F)c(F)c2)CC(C)(C)c2cc(C#N)[nH]c21 (stereo not drawn) [isopropyl 2-cyano-6-(3,4-difluorobenzoyl)-4,4-dimethyl-1,4,5,6,7,8-hexahydropyrrolo[2,3-d]azepine-8-carboxylate] |
| 2700 | CC(C)OC(=O)C1CN(C(=O)c2cccc(C(F)(F)F)c2)CC(C)(C)c2cc(C#N)[nH]c21 (stereo not drawn) [iso-propyl 2-cyano-4,4-dimethyl-6-[3-(trifluoromethyl)benzoyl]-1,4,5,6,7,8-hexahydropyrrolo[2,3-d]azepine-8-carboxylate] |
| 1900 | CC(C)OC(=O)C1CN(C(=O)C2CCCCC2)CC(C)(C)c2cc(C#N)[nH]c21 (stereo not drawn) [iso-propyl 2-cyano-6-(cyclohexylcarbonyl)-4,4-dimethyl-1,4,5,6,7,8-hexahydropyrrolo[2,3-d]azepine-8-carboxylate] |
| 3300 | CC(C)OC(=O)C1CN(C(=O)C2CCOCC2)CC(C)(C)c2cc(C#N)[nH]c21 (stereo not drawn) [isopropyl 2-cyano-4,4-dimethyl-6-(tetrahydro-2H-pyran-4-ylcarbonyl)-1,4,5,6,7,8-hexahydropyrrolo[2,3-d]azepine-8-carboxylate] |
| 640 | CC(C)OC(=O)C1CN(C(=O)c2ccc(F)cc2)CC(C)(C)c2cc(C#N)[nH]c21 (stereo not drawn) [isopropyl 2-cyano-6-(4-fluorobenzoyl)-4,4-dimethyl-1,4,5,6,7,8-hexahydropyrrolo[2,3-d]azepine-8-carboxylate] |
| 5700 | CC(C)OC(=O)C1CN(C(=O)c2ccc(C#N)cc2)CC(C)(C)c2cc(C#N)[nH]c21 (stereo not drawn) [iso-propyl 2-cyano-6-(4-cyanobenzoyl)-4,4-dimethyl-1,4,5,6,7,8-hexahydropyrrolo[2,3-d]azepine-8-carboxylate] |
